Assay results reported in ChEMBL document CHEMBL4118122, “Identification and biological evaluation of thiazole-based inverse agonists of RORγt” (Bioorg Med Chem Lett, 2018).
pIC50: −log10 of the molar value.

Legend:
Adenosine receptor A2a [1] = molecular target: T1, Adenosine receptor A2a (Homo sapiens, UniProt P29274); test: Displacement of [3H]-CGS 21680 from human recombinant adenosine A2A receptor at 10 uM after 120 mins by scintillation counting analysis relative to control
[2] = molecular target: C-C chemokine receptor type 1 (Homo sapiens) (UniProt P32246); test: Displacement of [125I]MIP-1alpha from human recombinant CCR1 receptor at 10 uM after 120 mins by scintillation counting analysis relative to control
[3] = molecular target: Substance-K receptor (Homo sapiens) (UniProt P21452); test: Displacement of [125I]NKA from human recombinant NK2 receptor at 10 uM after 60 mins by scintillation counting analysis relative to control
Chain of Substance-K receptor (Homo sapiens) (P21452 whole entry): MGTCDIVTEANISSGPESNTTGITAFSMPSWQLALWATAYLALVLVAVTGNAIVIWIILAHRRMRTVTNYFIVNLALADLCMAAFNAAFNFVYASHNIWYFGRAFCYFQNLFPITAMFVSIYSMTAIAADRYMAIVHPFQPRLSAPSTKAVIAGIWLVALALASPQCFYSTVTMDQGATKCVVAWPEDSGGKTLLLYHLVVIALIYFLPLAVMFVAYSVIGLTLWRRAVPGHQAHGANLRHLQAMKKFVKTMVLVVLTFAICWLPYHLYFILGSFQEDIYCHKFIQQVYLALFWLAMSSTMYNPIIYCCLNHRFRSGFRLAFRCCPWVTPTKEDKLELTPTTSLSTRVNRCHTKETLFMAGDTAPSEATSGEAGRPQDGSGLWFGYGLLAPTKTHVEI

[4] = molecular target: 5-hydroxytryptamine receptor 1A (Homo sapiens) (UniProt P08908); test: Displacement of [3H]8-OH-DPAT from recombinant human 5-HT1A receptor at 10 uM after 60 mins by scintillation counting analysis relative to control
Chain of 5-hydroxytryptamine receptor 1A (Homo sapiens) (P08908 whole entry): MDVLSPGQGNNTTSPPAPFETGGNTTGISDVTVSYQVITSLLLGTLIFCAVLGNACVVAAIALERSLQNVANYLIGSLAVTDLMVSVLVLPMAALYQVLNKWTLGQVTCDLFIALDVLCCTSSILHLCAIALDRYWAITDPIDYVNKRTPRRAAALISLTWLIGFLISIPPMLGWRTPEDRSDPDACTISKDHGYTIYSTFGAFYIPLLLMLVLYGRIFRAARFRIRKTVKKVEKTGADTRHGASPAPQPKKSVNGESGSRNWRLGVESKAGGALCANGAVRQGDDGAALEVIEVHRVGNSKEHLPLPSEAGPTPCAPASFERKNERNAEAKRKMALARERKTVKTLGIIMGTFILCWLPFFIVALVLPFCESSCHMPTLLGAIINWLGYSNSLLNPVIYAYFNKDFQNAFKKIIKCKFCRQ

Rattus norvegicus [5] = species: Rattus norvegicus; test: Displacement of [3H]D 888 from rat brain L-type calcium channel verapamil binding site at 10 uM after 120 mins by scintillation counting analysis relative to control
Rattus norvegicus [6] = species: Rattus norvegicus; test: Displacement of [125I]alpha-dendrotoxin from rat brain voltage-gated K channel at 10 uM after 60 mins by scintillation counting analysis relative to control
Adenosine receptor A2a [7] = molecular target: T1, Adenosine receptor A2a; test: Displacement of [3H]-CGS 21680 from human recombinant adenosine A2A receptor at 1 uM after 120 mins by scintillation counting analysis relative to control
[8] = molecular target: Type-1 angiotensin II receptor (Homo sapiens) (UniProt P30556); test: Displacement of [125I][Sar1,Ile8]-AT-II from human recombinant AT1 receptor at 1 uM after 120 mins by scintillation counting analysis relative to control
D(2) dopamine receptor = D(2) dopamine receptor (Homo sapiens, UniProt P14416); test: Displacement of [3H]7-OH-DPAT from human recombinant dopamine D2S receptor at 1 uM after 60 mins by scintillation counting analysis relative to control
Histamine H1 receptor = Histamine H1 receptor (Homo sapiens, UniProt P35367); test: Displacement of [3H]pyrilamine from human recombinant histamine H1 receptor at 1 uM after 60 mins by scintillation counting analysis relative to control
Melanocortin receptor 4 = Melanocortin receptor 4 (Homo sapiens, UniProt P32245); test: Displacement of [125I]NDP-alpha-MSH from human recombinant MC4 receptor at 1 uM after 120 mins by scintillation counting analysis relative to control
Chain of Melanocortin receptor 4 (P32245 whole entry): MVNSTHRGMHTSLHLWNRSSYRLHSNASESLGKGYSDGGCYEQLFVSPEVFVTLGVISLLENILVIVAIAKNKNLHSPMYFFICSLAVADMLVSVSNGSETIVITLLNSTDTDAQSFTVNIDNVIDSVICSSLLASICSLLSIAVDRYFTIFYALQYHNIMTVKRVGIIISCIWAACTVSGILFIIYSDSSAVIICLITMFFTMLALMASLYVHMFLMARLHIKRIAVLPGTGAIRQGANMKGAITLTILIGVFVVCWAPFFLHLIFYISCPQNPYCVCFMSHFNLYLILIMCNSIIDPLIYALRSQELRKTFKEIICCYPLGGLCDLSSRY

[9] = molecular target: Neuromedin-K receptor (Homo sapiens) (UniProt P29371); test: Displacement of [3H]SR 142801 from human recombinant NK3 receptor at 1 uM after 120 mins by scintillation counting analysis relative to control
Chain of Neuromedin-K receptor (Homo sapiens) (P29371 whole entry): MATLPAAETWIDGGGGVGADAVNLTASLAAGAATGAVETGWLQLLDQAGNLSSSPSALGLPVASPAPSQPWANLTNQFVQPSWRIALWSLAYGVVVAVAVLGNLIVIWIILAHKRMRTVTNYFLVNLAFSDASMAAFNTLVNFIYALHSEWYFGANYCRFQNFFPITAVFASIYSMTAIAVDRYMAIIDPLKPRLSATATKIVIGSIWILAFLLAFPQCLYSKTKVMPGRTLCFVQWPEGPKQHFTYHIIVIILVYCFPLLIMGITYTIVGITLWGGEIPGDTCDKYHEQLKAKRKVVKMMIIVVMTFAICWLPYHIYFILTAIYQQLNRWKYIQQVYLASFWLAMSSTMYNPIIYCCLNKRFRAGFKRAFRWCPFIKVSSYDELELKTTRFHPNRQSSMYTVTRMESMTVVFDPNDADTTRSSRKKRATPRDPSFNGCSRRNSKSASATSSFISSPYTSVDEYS

[10] = molecular target: 5-hydroxytryptamine receptor 2A (Homo sapiens, UniProt P28223); test: Displacement of [3H]ketanserin human recombinant 5-HT2A receptor at 1 uM after 60 mins by scintillation counting analysis relative to control
Chain of 5-hydroxytryptamine receptor 2A (P28223 whole entry): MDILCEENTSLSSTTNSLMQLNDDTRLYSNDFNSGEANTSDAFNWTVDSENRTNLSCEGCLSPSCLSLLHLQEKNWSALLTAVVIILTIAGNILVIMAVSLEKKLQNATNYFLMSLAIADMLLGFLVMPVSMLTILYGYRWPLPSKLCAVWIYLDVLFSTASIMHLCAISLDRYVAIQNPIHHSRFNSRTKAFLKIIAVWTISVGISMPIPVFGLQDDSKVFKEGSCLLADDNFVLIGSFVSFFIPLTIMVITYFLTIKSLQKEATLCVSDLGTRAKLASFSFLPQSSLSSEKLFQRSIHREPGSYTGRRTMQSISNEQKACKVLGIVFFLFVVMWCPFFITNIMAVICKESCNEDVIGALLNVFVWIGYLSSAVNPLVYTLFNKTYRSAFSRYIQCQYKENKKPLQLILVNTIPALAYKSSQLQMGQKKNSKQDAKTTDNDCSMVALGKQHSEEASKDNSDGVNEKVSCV

[11] = molecular target: 5-hydroxytryptamine receptor 2B (Homo sapiens, UniProt P41595); test: Displacement of [125I]+/-DOI from human recombinant 5-HT2B receptor at 1 uM after 60 mins by scintillation counting analysis relative to control
Chain of 5-hydroxytryptamine receptor 2B (P41595 whole entry): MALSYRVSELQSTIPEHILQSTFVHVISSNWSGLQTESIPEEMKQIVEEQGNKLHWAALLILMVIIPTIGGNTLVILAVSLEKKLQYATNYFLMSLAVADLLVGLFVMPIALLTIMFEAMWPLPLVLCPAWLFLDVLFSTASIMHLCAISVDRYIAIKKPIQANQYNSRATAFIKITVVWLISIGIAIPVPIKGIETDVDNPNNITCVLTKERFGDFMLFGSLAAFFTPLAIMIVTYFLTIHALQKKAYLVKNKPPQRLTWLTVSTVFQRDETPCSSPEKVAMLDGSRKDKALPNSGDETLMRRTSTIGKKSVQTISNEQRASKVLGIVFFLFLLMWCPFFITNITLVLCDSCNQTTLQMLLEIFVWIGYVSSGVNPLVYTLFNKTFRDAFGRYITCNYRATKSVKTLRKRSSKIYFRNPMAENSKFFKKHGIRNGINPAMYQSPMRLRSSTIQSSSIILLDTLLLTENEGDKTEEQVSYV

[12] = molecular target: 5-hydroxytryptamine receptor 3A (Homo sapiens) (UniProt P46098); test: Displacement of [3H]BRL 43694 from human recombinant 5-HT3 receptor at 1 uM after 120 mins by scintillation counting analysis relative to control
Chain of 5-hydroxytryptamine receptor 3A (Homo sapiens) (P46098 whole entry): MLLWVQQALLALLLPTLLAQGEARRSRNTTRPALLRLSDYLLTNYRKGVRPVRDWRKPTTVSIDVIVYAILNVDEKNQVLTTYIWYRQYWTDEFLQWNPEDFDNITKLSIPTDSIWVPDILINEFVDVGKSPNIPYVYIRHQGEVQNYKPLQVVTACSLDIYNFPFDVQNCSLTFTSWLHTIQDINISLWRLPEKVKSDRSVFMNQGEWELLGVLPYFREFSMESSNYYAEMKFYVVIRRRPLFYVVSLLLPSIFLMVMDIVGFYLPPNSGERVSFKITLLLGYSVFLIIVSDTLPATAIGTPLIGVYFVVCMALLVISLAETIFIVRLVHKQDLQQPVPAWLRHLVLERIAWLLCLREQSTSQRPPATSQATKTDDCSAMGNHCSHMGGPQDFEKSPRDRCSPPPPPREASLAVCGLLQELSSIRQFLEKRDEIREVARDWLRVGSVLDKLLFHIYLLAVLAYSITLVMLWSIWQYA

Adenosine receptor A1 = Adenosine receptor A1 (Homo sapiens, UniProt P30542); test: Displacement of [3H]-DPCPX from human recombinant adenosine A1 receptor after 60 mins by scintillation counting analysis
Chain of Adenosine receptor A1 (P30542 whole entry): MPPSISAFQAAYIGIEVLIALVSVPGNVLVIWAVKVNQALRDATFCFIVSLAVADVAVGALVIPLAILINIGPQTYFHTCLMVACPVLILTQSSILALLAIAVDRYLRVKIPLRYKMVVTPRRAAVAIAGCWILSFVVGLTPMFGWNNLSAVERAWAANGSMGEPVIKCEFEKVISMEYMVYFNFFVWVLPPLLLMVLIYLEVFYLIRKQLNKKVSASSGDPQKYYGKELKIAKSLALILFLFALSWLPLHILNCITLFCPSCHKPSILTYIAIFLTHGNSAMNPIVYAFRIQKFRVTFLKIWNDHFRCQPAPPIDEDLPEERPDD

Endothelin-1 receptor = Endothelin-1 receptor (Homo sapiens, UniProt P25101); test: Displacement of [125I]-endothelin-1 from human recombinant ETA receptor after 120 mins by scintillation counting analysis
[13] = molecular target: Muscarinic acetylcholine receptor M3 (Homo sapiens, UniProt P20309); test: Displacement of [3H]4-DAMP from human recombinant M3 receptor after 60 mins by scintillation counting analysis
Chain of Muscarinic acetylcholine receptor M3 (P20309 whole entry): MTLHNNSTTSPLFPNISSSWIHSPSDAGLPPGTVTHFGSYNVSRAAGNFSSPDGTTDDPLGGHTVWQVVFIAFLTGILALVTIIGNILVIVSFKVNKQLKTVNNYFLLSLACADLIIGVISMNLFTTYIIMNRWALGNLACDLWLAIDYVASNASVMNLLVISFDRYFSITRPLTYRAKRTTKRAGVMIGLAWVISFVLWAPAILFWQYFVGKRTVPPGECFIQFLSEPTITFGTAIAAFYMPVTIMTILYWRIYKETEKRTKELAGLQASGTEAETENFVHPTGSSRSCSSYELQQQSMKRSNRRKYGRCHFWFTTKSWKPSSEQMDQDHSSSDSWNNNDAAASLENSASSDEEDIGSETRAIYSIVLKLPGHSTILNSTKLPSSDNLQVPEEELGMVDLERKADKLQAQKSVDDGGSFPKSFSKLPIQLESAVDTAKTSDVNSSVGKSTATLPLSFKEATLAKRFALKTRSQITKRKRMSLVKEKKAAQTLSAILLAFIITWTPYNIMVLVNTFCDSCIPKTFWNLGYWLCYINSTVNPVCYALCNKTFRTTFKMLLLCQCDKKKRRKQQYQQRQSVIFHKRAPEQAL

[14] = molecular target: Delta-type opioid receptor (Homo sapiens, UniProt P41143); test: Displacement of [3H]DADLE from human recombinant delta opioid receptor after 60 mins by scintillation counting analysis
[15] = molecular target: 5-hydroxytryptamine receptor 7 (Homo sapiens, UniProt P34969); test: Displacement of [3H]LSD from human recombinant 5-HT7 receptor after 120 mins by scintillation counting analysis
Vasopressin V1a receptor = Vasopressin V1a receptor (Homo sapiens, UniProt P37288); test: Displacement of [3H]AVP from human recombinant V1a receptor after 60 mins by scintillation counting analysis
[16] = molecular target: Casein kinase II subunit alpha (Homo sapiens) (UniProt P68400); test: Inhibition of CK2alpha1 (unknown origin) at 10 uM in presence of ATP relative to control
[17] = molecular target: Epidermal growth factor receptor (Homo sapiens) (UniProt P00533); test: Inhibition of recombinant GST-tagged human EGFR (668 to 1210 residues) expressed in baculovirus expression system at 10 uM in presence of ATP relative to control
[18] = molecular target: G protein-coupled receptor kinase 4 (Homo sapiens) (UniProt P32298); test: Inhibition of recombinant human full length GST-tagged GRK4 expressed in baculovirus expression system at 10 uM in presence of ATP relative to control
[19] = molecular target: Insulin-like growth factor 1 receptor (Homo sapiens) (UniProt P08069); test: Inhibition of recombinant His-tagged human IGF1R cytoplasmic domain (960 to […] residues) expressed in baculovirus expression system at 10 uM in presence of ATP relative to control
[20] = molecular target: Tyrosine-protein kinase JAK2 (Homo sapiens) (UniProt O60674); test: Inhibition of recombinant GST-tagged human JAK2 catalytic domain (809 to 1153 residues) expressed in baculovirus expression system at 10 uM in presence of ATP relative to control
[21] = molecular target: Mitogen-activated protein kinase 1 (Homo sapiens) (UniProt P28482); test: Inhibition of recombinant GST-tagged human ERK2 expressed in Escherichia coli at 10 uM in presence of ATP relative to control
Chain of Mitogen-activated protein kinase 1 (Homo sapiens) (P28482 whole entry, the tested form may be a part): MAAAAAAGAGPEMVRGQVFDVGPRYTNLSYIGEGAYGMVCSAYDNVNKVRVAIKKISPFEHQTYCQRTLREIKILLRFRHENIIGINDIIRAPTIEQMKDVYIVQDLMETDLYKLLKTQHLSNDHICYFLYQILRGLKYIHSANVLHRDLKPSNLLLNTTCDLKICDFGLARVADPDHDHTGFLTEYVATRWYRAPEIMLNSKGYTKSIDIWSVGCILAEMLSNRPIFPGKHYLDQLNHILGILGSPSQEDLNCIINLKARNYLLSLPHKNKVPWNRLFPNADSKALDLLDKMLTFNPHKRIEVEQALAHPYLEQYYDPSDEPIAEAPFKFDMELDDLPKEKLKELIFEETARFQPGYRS

[22] = molecular target: NT-3 growth factor receptor (Homo sapiens) (UniProt Q16288); test: Inhibition of recombinant full length His-tagged human NTRK3 (510 to 825 residues) cytoplasmic domain expressed in baculovirus expression system at 10 uM in presence of ATP relative to control
[23] = molecular target: Protein kinase C alpha type (Homo sapiens) (UniProt P17252); test: Inhibition of recombinant full length human PKCalpha expressed in baculovirus expression system at 10 uM in presence of ATP relative to control
[24] = Thermodynamic solubility of the compound in fasted state simulated intestinal […] after 2 to 5 days by UV-HPLC analysis; type: physicochemical; conditions: read-out: Therm_solubility
[25] = Initial plasma concentration in Sprague-Dawley rat at 1 mg/kg, iv; type: ADME, organism-based
[26] = molecular target: Proto-oncogene tyrosine-protein kinase receptor Ret (Homo sapiens) (UniProt P07949); test: Inhibition of recombinant GST-tagged human RET cytoplasmic domain (658 to 1114 residues) expressed in baculovirus expression system at 10 uM in presence of ATP relative to control

T1 sequence (P29274 whole entry): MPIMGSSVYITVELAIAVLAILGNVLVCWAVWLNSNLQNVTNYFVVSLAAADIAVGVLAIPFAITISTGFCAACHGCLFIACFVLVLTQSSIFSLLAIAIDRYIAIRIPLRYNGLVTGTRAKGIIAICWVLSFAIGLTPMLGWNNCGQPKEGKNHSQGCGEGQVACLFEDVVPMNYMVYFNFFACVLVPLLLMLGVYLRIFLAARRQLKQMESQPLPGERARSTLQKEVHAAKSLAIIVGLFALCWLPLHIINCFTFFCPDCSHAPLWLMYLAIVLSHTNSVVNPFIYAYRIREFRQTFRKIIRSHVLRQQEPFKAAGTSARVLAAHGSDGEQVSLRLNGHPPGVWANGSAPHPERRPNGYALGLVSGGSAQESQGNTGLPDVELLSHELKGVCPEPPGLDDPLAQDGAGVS

CC(C)(C)NS(=O)(=O)c1ccc(-c2sc(C(=O)N[C@H]3C[C@H](C(=O)O)C3)nc2CC2CCCCC2)c2ccccc12
inhibition (Adenosine receptor A2a [1]): 20%
inhibition [2]: < 10%
inhibition [3]: < 10%
inhibition [4]: 16%
inhibition (Rattus norvegicus [5]): < 10%
inhibition (Rattus norvegicus [6]): < 10%
inhibition (Adenosine receptor A2a [7]): 21%
inhibition [8]: < 10%
inhibition (D(2) dopamine receptor): < 10%
inhibition (Histamine H1 receptor): 11%
inhibition (Melanocortin receptor 4): < 10%
inhibition [9]: < 10%
inhibition [10]: < 10%
inhibition [11]: < 10%
inhibition [12]: < 10%
pIC50 (Adenosine receptor A1): 9.21
pIC50 (Endothelin-1 receptor): 10.64
pIC50 [13]: 9.14
pIC50 [14]: 8.22
pIC50 [15]: 9.41
pIC50 (Vasopressin V1a receptor): 8.96
inhibition [16]: 0%
inhibition [17]: -3%
inhibition [18]: -3%
inhibition [19]: -10%
inhibition [20]: 2%
inhibition [21]: -6%
inhibition [22]: -10%
inhibition [23]: -1%
solubility thermodynamic [24]: > 400 µM
C0 [25]: 4430 ng/mL
inhibition [26]: -3%
